The values below come from PubChem BioAssay (NCI).

Test systems include NCI-H23 lung; OVCAR-5 ovarian; SK-MEL-5 melanoma; IGROV1 ovarian; HOP-62 NSCLC; TK-10 renal; LOX IMVI melanoma; A498 renal.
What all share (assay): NCI-60 cell line screen, 48 h

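Method: 48-hour compound exposure of cells in 96-well plates, five concentrations, linear interpolation of endpoints. Abbreviation: GI50, concentration required for 50% inhibition of growth. TGI marks complete inhibition of growth.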 Some results are limits rather than exact numbers.

For `c1ccc2c(c1)Cc1c(Cc3csc4ccccc34)ccc3cccc-2c13`, the TGI in the assay on NCI-H23 lung, in the assay with OVCAR-5 ovarian, in the assay with SK-MEL-5 melanoma, with IGROV1 ovarian and with HOP-62 NSCLC was > 100 µM throughout.
Turning to `Cc1ccc(N=C2N=C(N3CC(C)OC(C)C3)c3ccccc32)cc1` (centres undefined), the TGI in the assay with TK-10 renal was > 100 µM; with NCI-H23 lung, 78.8 µM; in the assay on LOX IMVI melanoma it was > 100 µM; in the assay with OVCAR-5 ovarian, > 100 µM; in the assay on A498 renal, 90.1 µM; with SK-MEL-5 melanoma, 48.5 µM. Besides, the figures for the TGI in the assay on IGROV1 ovarian and with HOP-62 NSCLC were 88.8 µM and > 100 µM, respectively.
For `O=C(N/C(=C\c1ccccc1O)c1nc2ccccc2[nH]1)c1ccccc1`, the TGI was 90.8 µM in the assay on TK-10 renal; > 100 µM in the assay on NCI-H23 lung; > 100 µM in the assay on LOX IMVI melanoma; > 100 µM in the assay with OVCAR-5 ovarian; > 100 µM in the assay with A498 renal; > 100 µM in the assay with SK-MEL-5 melanoma. The TGI in the assay on IGROV1 ovarian and in the assay on HOP-62 NSCLC was > 100 µM in each case.
Take `COc1ccc(O)cc1C(O)c1ccccc1` (centres undefined): the TGI in the assay with TK-10 renal, in the assay on NCI-H23 lung, in the assay with LOX IMVI melanoma, in the assay on OVCAR-5 ovarian, in the assay on A498 renal and in the assay with SK-MEL-5 melanoma was > 100 µM in each case. The TGI in the assay with IGROV1 ovarian and in the assay on HOP-62 NSCLC was > 100 µM in each case.
On to `CCc1cc2c(O)c(c1)Cc1cc(CC)cc(c1O)Cc1cc(CC)cc(c1O)Cc1cc(CC)cc(c1O)Cc1cc(CC)cc(c1O)Cc1cc(CC)cc(c1O)Cc1cc(CC)cc(c1O)C2`, for which the TGI in the assay on TK-10 renal, with NCI-H23 lung, in the assay with OVCAR-5 ovarian, in the assay with SK-MEL-5 melanoma, with IGROV1 ovarian and in the assay with HOP-62 NSCLC was > 100 µM throughout.
Take `O=C1C=C2CCCC2C(C(=O)O)(C(=O)O)C1` (centres undefined): the TGI in the assay on TK-10 renal, in the assay with NCI-H23 lung, in the assay with LOX IMVI melanoma, with A498 renal, in the assay with SK-MEL-5 melanoma and with IGROV1 ovarian was > 100 µM in each case. Also, the TGI with HOP-62 NSCLC was > 100 µM.
As to `N#C/C(=C1\OC(=N)C(c2ccccc2)C1=O)c1ccccc1` (centres undefined), the TGI with TK-10 renal was 68.5 µM; with LOX IMVI melanoma, 91.5 µM; in the assay with OVCAR-5 ovarian it was > 100 µM; with A498 renal, > 100 µM; in the assay with SK-MEL-5 melanoma, > 64.2 µM; in the assay on IGROV1 ovarian, > 80.7 µM. In the assay on HOP-62 NSCLC, the TGI was > 100 µM.
`Cc1ccc(/C=C/C(=O)c2sc(-n3nc(-c4ccccc4)cc3-c3ccccc3)nc2C)cc1`: the TGI in the assay with TK-10 renal, with NCI-H23 lung, in the assay on LOX IMVI melanoma, in the assay with OVCAR-5 ovarian, in the assay on A498 renal and in the assay on SK-MEL-5 melanoma was > 100 µM in each case. In addition, the TGI in the assay with IGROV1 ovarian and with HOP-62 NSCLC was > 100 µM throughout.
Regarding `Nc1nc2c(-c3ccc([N+](=O)[O-])cc3)nnn2c2ccccc12`, the TGI was 48.9 µM in the assay on TK-10 renal; > 100 µM with NCI-H23 lung; > 100 µM in the assay on LOX IMVI melanoma; > 100 µM with OVCAR-5 ovarian; > 100 µM in the assay on A498 renal; > 100 µM in the assay with IGROV1 ovarian. Besides, the TGI in the assay on HOP-62 NSCLC was > 100 µM.
As to `COc1ccc(/C=C/C(=O)c2c(-c3ccccc3)nn(C)c(=O)c2N2CCOCC2)cc1`, the TGI in the assay on TK-10 renal, in the assay on NCI-H23 lung, with LOX IMVI melanoma, in the assay with A498 renal, with SK-MEL-5 melanoma and in the assay with IGROV1 ovarian was > 100 µM in each case.
On to `C/C=C/C(=O)[O-].C/C=C/C(=O)[O-].N.N.N.N.[Co+3].[O-][Cl+3]([O-])([O-])[O-]`, for which the GI50 with TK-10 renal, in the assay on NCI-H23 lung, with LOX IMVI melanoma, in the assay with OVCAR-5 ovarian, in the assay on A498 renal and in the assay on SK-MEL-5 melanoma was > 100 µM each time. Moreover, the GI50 in the assay with IGROV1 ovarian and with HOP-62 NSCLC was > 100 µM in each case. The TGI in the assay with TK-10 renal, with NCI-H23 lung, with LOX IMVI melanoma, in the assay on OVCAR-5 ovarian, in the assay with A498 renal and in the assay on SK-MEL-5 melanoma was > 100 µM in each case. In addition, the TGI in the assay on IGROV1 ovarian and in the assay on HOP-62 NSCLC was > 100 µM throughout.
Consider `CC1(C)c2ccccc2N2O[C@@H]3C(=O)N(c4ccccc4)C(=O)[C@@H]3C21c1ccccc1` (some centres undefined), for which the TGI in the assay with TK-10 renal, with NCI-H23 lung, in the assay on LOX IMVI melanoma, in the assay with SK-MEL-5 melanoma, in the assay on IGROV1 ovarian and with HOP-62 NSCLC was > 100 µM in each case.
For `O=C(CCC(=O)Nc1cccc(C(F)(F)F)c1)CC(=O)c1ccc2ccccc2c1`, the TGI in the assay on TK-10 renal, in the assay with NCI-H23 lung, in the assay on LOX IMVI melanoma, in the assay with OVCAR-5 ovarian, in the assay with A498 renal and in the assay with SK-MEL-5 melanoma was > 100 µM in each case. Also, in the assay on IGROV1 ovarian, the TGI was > 100 µM.
